In patent US12281057B2 (VERTEX PHARMACEUTICALS INCORPORATED, priority 2017, dated 2025):

Biological target: truncated form of human NaV 1.8 with full channel activity (Homo sapiens, UniProt Q9Y5Y9)
Assay: E-VIPR Assay Method A for detecting and measuring Nav inhibition (HEK cells, membrane potential FRET dyes, electrical stimulation)
Format: cell-based
Details: HEK cells expressing human NaV 1.8, HS (human serum) in compound loading buffer, 11 point dose response, top dose 3 μM, Table 20A, read-out: Nav 1.8 MedChem Optical Assay EVIPR Assay Method A HS IC50
Outline: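 Read-out: FRET membrane-potential dye ratio (460/580 nm) before and during E-VIPR field stimulation at 10 Hz for 10 s, expressed as % activity between DMSO and positive controls. Cells: HEK with truncated human NaV1.8; compound preincubated 30 min at room temp, final DMSO 0.625%.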

truncated form of human NaV 1.8 with full channel activity, sequence (Q9Y5Y9 126-1722 limits assumed): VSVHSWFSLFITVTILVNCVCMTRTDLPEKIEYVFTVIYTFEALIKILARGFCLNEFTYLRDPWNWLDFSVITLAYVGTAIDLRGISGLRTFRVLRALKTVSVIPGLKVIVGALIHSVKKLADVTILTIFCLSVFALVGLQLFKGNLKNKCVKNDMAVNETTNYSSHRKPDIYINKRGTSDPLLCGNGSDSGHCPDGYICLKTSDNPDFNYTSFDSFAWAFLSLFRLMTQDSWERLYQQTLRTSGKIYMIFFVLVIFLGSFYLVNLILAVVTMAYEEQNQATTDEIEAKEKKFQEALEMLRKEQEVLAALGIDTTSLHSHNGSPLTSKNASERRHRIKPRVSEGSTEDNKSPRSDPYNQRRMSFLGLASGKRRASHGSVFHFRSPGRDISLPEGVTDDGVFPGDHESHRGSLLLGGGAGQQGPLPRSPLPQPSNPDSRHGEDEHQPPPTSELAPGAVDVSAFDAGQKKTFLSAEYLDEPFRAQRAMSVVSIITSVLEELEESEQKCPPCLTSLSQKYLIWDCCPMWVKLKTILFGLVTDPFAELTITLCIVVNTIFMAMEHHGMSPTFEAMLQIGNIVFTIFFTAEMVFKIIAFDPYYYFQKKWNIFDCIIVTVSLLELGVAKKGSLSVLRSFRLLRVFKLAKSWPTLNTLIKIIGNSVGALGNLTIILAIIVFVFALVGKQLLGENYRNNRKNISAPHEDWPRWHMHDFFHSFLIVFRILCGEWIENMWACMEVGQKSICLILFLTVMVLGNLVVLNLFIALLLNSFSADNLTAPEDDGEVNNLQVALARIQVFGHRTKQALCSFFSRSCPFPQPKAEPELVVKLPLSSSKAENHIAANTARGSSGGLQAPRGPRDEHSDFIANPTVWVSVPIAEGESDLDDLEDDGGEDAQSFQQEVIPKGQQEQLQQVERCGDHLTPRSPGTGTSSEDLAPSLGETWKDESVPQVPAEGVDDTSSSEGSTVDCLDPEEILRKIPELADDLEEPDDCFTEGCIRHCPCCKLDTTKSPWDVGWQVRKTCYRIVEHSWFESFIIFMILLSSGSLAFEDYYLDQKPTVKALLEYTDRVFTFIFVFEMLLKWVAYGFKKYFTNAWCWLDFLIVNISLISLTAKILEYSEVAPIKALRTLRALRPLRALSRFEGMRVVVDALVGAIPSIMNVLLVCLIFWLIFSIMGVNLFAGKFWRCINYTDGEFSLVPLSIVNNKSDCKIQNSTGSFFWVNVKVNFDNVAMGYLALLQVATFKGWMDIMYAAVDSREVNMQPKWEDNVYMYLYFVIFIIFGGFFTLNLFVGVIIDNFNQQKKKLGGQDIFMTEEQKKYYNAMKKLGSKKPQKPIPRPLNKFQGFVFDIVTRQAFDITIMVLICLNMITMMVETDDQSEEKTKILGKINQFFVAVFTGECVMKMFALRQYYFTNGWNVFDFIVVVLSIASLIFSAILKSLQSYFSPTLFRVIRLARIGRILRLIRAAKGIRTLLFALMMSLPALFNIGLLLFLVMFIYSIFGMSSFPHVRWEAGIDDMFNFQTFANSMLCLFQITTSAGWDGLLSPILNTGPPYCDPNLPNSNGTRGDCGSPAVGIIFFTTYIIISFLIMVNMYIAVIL

SMILES | IC50 [nM]
COc1cc(OC(F)(F)F)ccc1Oc1cc(Cl)cc(F)c1C(=O)Nc1ccnc(C(N)=O)c1 [Compound 170, 4-[[4-Chloro-2-fluoro-6-[2-methoxy-4-(trifluoromethoxy)phenoxy]benzoyl]amino]pyridine-2-carboxamide] | 14
COc1cc(OC(F)(F)F)ccc1Oc1ccc(F)c(Cl)c1C(=O)Nc1ccnc(C(N)=O)c1 [Compound 171, 4-[[2-Chloro-3-fluoro-6-[2-methoxy-4-(trifluoromethoxy)phenoxy]benzoyl]amino]pyridine-2-carboxamide] | 35
[2H]C([2H])([2H])Oc1cc(OC(F)(F)F)ccc1Oc1cc(OC(F)(F)F)cc(F)c1C(=O)Nc1ccnc(C(N)=O)c1 [Compound 172, 4-[[2-Fluoro-6-[2-(trideuteriomethoxy)-4-(trifluoromethoxy)phenoxy]-4-(trifluoromethoxy)benzoyl]amino]pyridine-2-carboxamide] | 12
[2H]C([2H])([2H])Oc1cc(OC(F)(F)F)ccc1Oc1cc(OC(F)(F)F)cc(F)c1C(=O)Nc1ccc(C(N)=O)nc1 [Compound 173, 5-[[2-Fluoro-6-[2-(trideuteriomethoxy)-4-(trifluoromethoxy)phenoxy]-4-(trifluoromethoxy)benzoyl]amino]pyridine-2-carboxamide] | 52
[2H]C([2H])([2H])Oc1cc(OC(F)(F)F)ccc1Oc1cc(OC(F)F)cc(F)c1C(=O)Nc1ccc(C(N)=O)nc1 [Compound 174, 5-[[4-(Difluoromethoxy)-2-fluoro-6-[2-(trideuteriomethoxy)-4-(trifluoromethoxy)phenoxy]benzoyl]amino]pyridine-2-carboxamide] | 88
[2H]C([2H])([2H])Oc1cc(OC(F)(F)F)ccc1Oc1cc(C(F)(F)F)cc(C(F)(F)F)c1C(=O)Nc1ccnc(C(N)=O)c1 [Compound 175, 4-[[2-[2-(Trideuteriomethoxy)-4-(trifluoromethoxy)phenoxy]-4,6-bis(trifluoromethyl)benzoyl]amino]pyridine-2-carboxamide] | 38
[2H]C([2H])([2H])Oc1cc(OC(F)(F)F)ccc1Oc1cc(C(F)(F)F)cc(C(F)(F)F)c1C(=O)Nc1ccc(C(N)=O)nc1 [Compound 176, 5-[[2-[2-(Trideuteriomethoxy)-4-(trifluoromethoxy)phenoxy]-4,6-bis(trifluoromethyl)benzoyl]amino]pyridine-2-carboxamide] | 190
NC(=O)c1cc(NC(=O)c2c(Cl)cc(Cl)cc2Oc2ccc(F)cc2)ccn1 [Compound 177, 4-[[2,4-Dichloro-6-(4-fluorophenoxy)benzoyl]amino]pyridine-2-carboxamide] | 460
COc1cc(F)ccc1Oc1cc(Cl)cc(Cl)c1C(=O)Nc1ccnc(C(N)=O)c1 [Compound 178, 4-[[2,4-Dichloro-6-(4-fluoro-2-methoxy-phenoxy)benzoyl]amino]pyridine-2-carboxamide] | 76
[2H]C([2H])([2H])Oc1cc(OC(F)(F)F)ccc1Oc1cc(Cl)cc(Cl)c1C(=O)Nc1ccnc(C(N)=O)c1 [Compound 179, 4-[[2,4-Dichloro-6-[2-(trideuteriomethoxy)-4-(trifluoromethoxy)phenoxy]benzoyl]amino]pyridine-2-carboxamide] | 10
NC(=O)c1cc(NC(=O)c2c(Cl)cc(Cl)cc2Oc2ccc(OC(F)(F)F)cc2)ccn1 [Compound 180, 4-[[2,4-Dichloro-6-[4-(trifluoromethoxy)phenoxy]benzoyl]amino]pyridine-2-carboxamide] | 75
NC(=O)c1ccc(NC(=O)c2c(Cl)cc(Cl)cc2Oc2ccc(F)cc2)cn1 [Compound 181, 5-[[2,4-Dichloro-6-(4-fluorophenoxy)benzoyl]amino]pyridine-2-carboxamide] | 2100
COc1cc(F)ccc1Oc1cc(Cl)cc(Cl)c1C(=O)Nc1ccc(C(N)=O)nc1 [Compound 182, 5-[[2,4-Dichloro-6-(4-fluoro-2-methoxy-phenoxy)benzoyl]amino]pyridine-2-carboxamide] | 410
[2H]C([2H])([2H])Oc1cc(OC(F)(F)F)ccc1Oc1cc(Cl)cc(Cl)c1C(=O)Nc1ccc(C(N)=O)nc1 [Compound 183, 5-[[2,4-Dichloro-6-[2-(trideuteriomethoxy)-4-(trifluoromethoxy)phenoxy]benzoyl]amino]pyridine-2-carboxamide] | 99
NC(=O)c1ccc(NC(=O)c2c(Cl)cc(Cl)cc2Oc2ccc(OC(F)(F)F)cc2)cn1 [Compound 184, 5-[[2,4-Dichloro-6-[4-(trifluoromethoxy)phenoxy]benzoyl]amino]pyridine-2-carboxamide] | 500
COc1cc(OC(F)(F)F)ccc1Oc1cc(Cl)cc(F)c1C(=O)Nc1ccc(C(N)=O)nc1 [Compound 185, 5-[[4-Chloro-2-fluoro-6-[2-methoxy-4-(trifluoromethoxy)phenoxy]benzoyl]amino]pyridine-2-carboxamide] | 66

SMILES | IC50 [nM]
COc1cc(OC(F)(F)F)ccc1Oc1ccc(F)c(Cl)c1C(=O)Nc1ccc(C(N)=O)nc1 [Compound 186, 5-[[2-Chloro-3-fluoro-6-[2-methoxy-4-(trifluoromethoxy)phenoxy]benzoyl]amino]pyridine-2-carboxamide] | 190
COc1cc(OC(F)(F)F)ccc1Oc1cc(C(F)(F)F)cc(F)c1C(=O)Nc1ccc(C(N)=O)nc1 [Compound 187, 5-[[2-Fluoro-6-[2-methoxy-4-(trifluoromethoxy)phenoxy]-4-(trifluoromethyl)benzoyl]amino]pyridine-2-carboxamide] | 53
[2H]C([2H])([2H])Oc1cc(OC(F)(F)F)ccc1Oc1ccc(C(F)(F)F)c(F)c1C(=O)Nc1ccc(C(N)=O)nc1C [Compound 188, 5-[[2-Fluoro-6-[2-(trideuteriomethoxy)-4-(trifluoromethoxy)phenoxy]-3-(trifluoromethyl)benzoyl]amino]-6-methyl-pyridine-2-carboxamide] | 160
COc1cc(OC(F)(F)F)ccc1Oc1ccc(Cl)c(F)c1C(=O)Nc1cc(C(N)=O)ncc1C [Compound 189, 4-[[3-Chloro-2-fluoro-6-[2-methoxy-4-(trifluoromethoxy)phenoxy]benzoyl]amino]-5-methyl-pyridine-2-carboxamide] | 6
NC(=O)c1cc(NC(=O)c2c(Oc3ccc(OC(F)(F)F)cc3)ccc3c2CCC3(F)F)ccc1F [Compound 190, N-(3-Carbamoyl-4-fluoro-phenyl)-1,1-difluoro-5-[4-(trifluoromethoxy)phenoxy]indane-4-carboxamide] | 32
NC(=O)c1cc(NC(=O)c2c(Oc3ccc(OC(F)(F)F)cc3)ccc3c2CCC3(F)F)ccn1 [Compound 191, 4-[[1,1-Difluoro-5-[4-(trifluoromethoxy)phenoxy]indane-4-carbonyl]amino]pyridine-2-carboxamide] | 120
NC(=O)c1ccc(NC(=O)c2c(Oc3ccc(OC(F)(F)F)cc3)ccc3c2CCC3(F)F)cn1 [Compound 192, 5-[[1,1-Difluoro-5-[4-(trifluoromethoxy)phenoxy]indane-4-carbonyl]amino]pyridine-2-carboxamide] | 420
COc1cc(OC(F)(F)F)ccc1Oc1ccc(C(F)(F)F)c(F)c1C(=O)Nc1ccc(C(N)=O)nc1 [Compound 193, 5-[[2-fluoro-6-[2-methoxy-4-(trifluoromethoxy)phenoxy]-3-(trifluoromethyl)benzoyl]amino]pyridine-2-carboxamide] | 16
COc1cc(OC(F)(F)F)ccc1Oc1cnc(C(F)(F)F)c(F)c1C(=O)Nc1ccc(C(N)=O)nc1 [Compound 194, N-(6-carbamoyl-3-pyridyl)-3-fluoro-5-[2-methoxy-4-(trifluoromethoxy)phenoxy]-2-(trifluoromethyl)pyridine-4-carboxamide] | 21
COc1ccc(Oc2ccc(C(F)(F)F)c(F)c2C(=O)Nc2ccnc(C(N)=O)c2)c(OC)c1 [Compound 195, 4-[[6-(2,4-Dimethoxyphenoxy)-2-fluoro-3-(trifluoromethyl)benzoyl]amino]pyridine-2-carboxamide] | 11
COc1ccc(Oc2ccc(C(F)(F)F)c(F)c2C(=O)Nc2ccnc(C(N)=O)c2)c(OC(F)(F)F)c1 [Compound 196, 4-[[2-Fluoro-6-[4-methoxy-2-(trifluoromethoxy)phenoxy]-3-(trifluoromethyl)benzoyl]amino]pyridine-2-carboxamide] | 44
COc1cc(OC(F)(F)F)ccc1Oc1cc2c(cc1C(=O)Nc1ccc(C(N)=O)nc1)OC(F)(F)O2 [Compound 197, 5-[[2,2-Difluoro-6-[2-methoxy-4-(trifluoromethoxy)phenoxy]-1,3-benzodioxole-5-carbonyl]amino]pyridine-2-carboxamide] | 460
[2H]C([2H])([2H])Oc1cc(OC(F)(F)F)ccc1Oc1ccc(OC(F)F)c(F)c1C(=O)Nc1ccc(C(N)=O)nc1 [Compound 198, 5-[[3-(Difluoromethoxy)-2-fluoro-6-[2-(trideuteriomethoxy)-4-(trifluoromethoxy)phenoxy]benzoyl]amino]pyridine-2-carboxamide] | 150
COc1cc(F)ccc1-c1cc(C(C)(C)C)ncc1C(=O)Nc1ccc(F)c(C(N)=O)c1 [Compound 199, 6-tert-butyl-N-(3-carbamoyl-4-fluoro-phenyl)-4-(4-fluoro-2-methoxy-phenyl)pyridine-3-carboxamide] | 170
COc1cc(F)ccc1-c1cnc(C(F)(F)F)cc1C(=O)Nc1ccc(F)c(C(N)=O)c1 [Compound 200, N-(3-carbamoyl-4-fluoro-phenyl)-5-(4-fluoro-2-methoxy-phenyl)-2-(trifluoromethyl)pyridine-4-carboxamide] | > 3100
COc1cc(OC(F)(F)F)ccc1Oc1cc(Cl)c(C)c(F)c1C(=O)Nc1ccnc(C(N)=O)c1 [Compound 201, 4-[[4-Chloro-2-fluoro-6-[2-methoxy-4-(trifluoromethoxy)phenoxy]-3-methyl-benzoyl]amino]pyridine-2-carboxamide] | 1
